Measured values from US20260027073A1, “USE OF SMALL-MOLECULE COMPOUND HAVING NAPHTHYLAMINE STRUCTURE” (HANGZHOU PHECDAMED CO., LTD., priority 2023, published 2026).

Experiments:
[1] = system: Mouse Model of Chemotherapy-Induced POF; assay: Chemotherapy (cyclophosphamide)-induced premature ovarian failure; format: in vivo, C57BL/6J mice; settings: for body weight / ovarian coefficient (ratio of ovarian weight to body weight) / ovarian weight: 30 mg/kg oral gavage, FIG. 67; for serum FSH level / serum E2 level / BDNF level in ovarian tissues: 30 mg/kg; for serum FSH level: FIG. 68; for serum E2 level: FIG. 69; for BDNF level in ovarian tissues: FIG. 70; for effect of TJ01-013 compared with I-14-1: b553: ovarian coefficient, b560: FSH concentration, serum E2 level and BDNF level
Method: Eight-week-old C57BL/6J mice (weighing about 20-25 g) were selected and adaptively fed for 7 d firstly, after which they were randomly divided into three groups according to their body weights, namely, the control group (Control, n=8), the model group (Cy, treated with the solvent 0.5% CMC-Na, n=8), and the TJ01-013 treatment group (Cy+TJ01-013, 30 mg/kg TJ01-013 by oral gavage, n=8). kg TJ01-013, n=8), I-14-1 treatment group (Cy+I-14-1, 30 mg/kg I-14-1 by oral gavage, n=8). The model group and the TJ01-013 treatment group received a single intraperitoneal injection of cyclophosphamide (75 mg/kg, 200-300 μl), and the control group received a single intraperitoneal injection of an equal volume of saline. Samples were collected after 12 days of administration, and body weights, ovary weights, and levels of the serum hormones E2 and FSH of the mice were measured.
The body weight and bilateral ovarian wet weight of each group of mice were weighed with an electronic balance and an analytical balance respectively, and the ovarian organ coefficient of each group was calculated according to the body weight of mice (g) and bilateral ovarian wet weight (mg). The formula is: […]
After the experiment reached the end point, blood was collected from the orbit, and the blood was centrifuged at 12,000 g for 10 min after standing still at room temperature for 45 min, and the supernatant (serum) was taken, and the levels of E2, FSH and BDNF in serum were detected by ELISA.
The mice were euthanized after reaching the end point of the experiment, and the levels of BDNF in the ovarian tissues were assayed by ELISA after the ovaries were extracted and ground.

[2] = system: chronic obstructive pulmonary disease model rats; assay: Chronic obstructive pulmonary disease (LPS plus passive smoking); format: in vivo, SD rats; settings: gavage 3 weeks, FIG. 62
Method: After 5-week-old male SD rats were adaptively fed for 1 week, they were randomly grouped according to their body weights into five groups, i.e., a normal control group (normal, n=10), a model control group (Control, n=10), a TJ01-013 7.5 mg/kg treatment group (7.5 mg/kg, n=10), a TJ01-013 15 mg/kg treatment group (15 mg/kg, n=10), TJ01-013 30 mg/kg treatment group (30 mg/kg, n=10). The model was replicated using the intra-airway injection of lipopolysaccharide method combined with passive smoking method, which is a recognized model for chronic obstructive pulmonary disease. […] From the second day of modeling, the normal control group and the model control group were treated with vehicle (0.5% CMC-Na) by gavage, and the TJ01-013 treatment group was treated with the corresponding concentration of TJ01-013 in a volume of 10 ml/kg for a total of 3 weeks, and blood was collected from the posterior bulbous vein of the rat after administration, and the blood was centrifuged at 6,000 rpm for 10 min after standing still at room temperature for 30 min, then the upper layer of serum was taken, and the levels of TNFα and CXCL1 in serum were detected by enzyme-linked immunosorbent assay (ELISA).

[3] = system: mice with renal ischemia-reperfusion; assay: Unilateral renal ischemia-reperfusion acute kidney injury; format: in vivo, C57BL/6 mice
Method: 8-week-old C57BL/6 mice (weighing about 20-25 g) were injected intraperitoneally with 50 mg/kg sodium pentobarbital. After the mice were anesthetized, carried out preserved skin and placed on a thermostatic table, the skin and muscle of the right side were incised from the back and the right kidney was exposed, and the tissue around the pedicle of the kidney was stripped off with forceps to expose the blood vessels and the ureter. The arterial and venous blood vessels and the ureter were ligated with sutures. After removing the kidney, the muscle and skin were sutured with sutures and placed at 37° C. to wake it up, and after waking up, the mice were given […] of I-1. The experiments were divided into a sham group (exposing the right side of the kidney without removing it), a control group (giving solvent treatment by oral gavage), a 10 mg/kg group (10 mg/kg I-1 by oral gavage) and a 30 mg/kg group (30 mg/kg I-1 by oral gavage), with being administered once a day, and left kidney ischemia-reperfusion was performed on the sixth day, the specific plan was: mice were injected intraperitoneally with 50 mg/kg sodium pentobarbital, after anesthetizing, carried out preserved skin and placed on a thermostatic table, the skin and muscle of the left side were cut from the back and the left kidney was exposed, and the tissue around the pedicle of the kidney was stripped off with forceps to expose the blood vessels, and the arterial clip were used to tighten the blood vessel, after ischemia for 45 min, the arterial clip were released and the kidney tissue was returned to its place with a cotton swab, and finally the muscle and skin were sutured with a suture lines and the mice were placed at 37° C. to wake it up, and given another drug treatment after waking up. Blood was taken from the eyeball after 24 h of reperfusion, and the blood was centrifuged at 12000 g for 10 min at 4° C. after standing at room temperature for 45 min, and the supernatant (serum) was taken to detect the level of creatinine and urea nitrogen in the serum with a biochemical analyzer.
After blood extraction from the mouse eyeballs, cardiac perfusion was performed with PBS, after mice were anesthetized and fixed on a foam plate with a needle, the skin and ribs of the chest and abdomen were cut open to expose the heart, the injection needle was inserted into the left ventricle of mice and the pericardium was cut open at the same time, and the perfusion was performed with PBS at a speed of 7 rpm until the liver turned white and then the perfusion was stopped, the kidneys were taken out, and the renal peritoneum was removed, and the kidneys were put into 4% paraformaldehyde and fixed and immersed for 72 h. Subsequently, tissue embedding was carried out. Then tissue embedding, sectioning and HE staining were performed as follows:
Tissue was dewaxed after embedding and sectioning, and performed antigen repair, 5% goat serum sealing solution was added dropwise at 37° C. for 40 min, 50 μl of KIM-1 and caspase3 primary antibody (1:500) was added dropwise, overnight at 4° C.; after rewarming at 37° C. for 30 min, the tissue was washed by PBS four times, each time for 5 min. And then fluorescence secondary antibody was added dropwise for Ih, and the tissue was washed by PBS four times, each time for 5 min, finally, the tissue was stained by DAPI for 10 min, sealed with nail polish, and images were collected by cytation 3.

[4] = reperfusion 24 h, oral gavage 10 mg/kg and 30 mg/kg, FIG. 1

SMILES | body weight [1] | ovarian coefficient (ratio of ovarian weight to body weight) [1] | ovarian weight [1] | serum FSH level [1] | serum E2 level [1] | BDNF level in ovarian tissues [1] | effect of TJ01-013 compared with I-14-1 ([1]; listed as TJ01-013) | effect of TJ01-013 compared with I-14-1 ([1]; listed as TJ0113) | serum CXCL1 level ([2]; 15 mg/kg and 30 mg/kg) | serum TNFα level ([2]; 30 mg/kg) | damage to renal tissues (HE staining) ([3]; FIG. 2) | KIM-1 level in renal tissue (immunostaining) ([3]; FIG. 3) | cleaved-caspase3 level in renal tissue (immunostaining) ([3]; FIG. 3) | serum creatinine level [3, 4] | serum urea nitrogen level [3, 4] | treatment of renal ischemia-reperfusion injury compared with I-1 ([3]; UMI-77 group vs I-1)
O=C(O)C[S+]([O-])c1cc(NS(=O)(=O)c2ccc(Br)cc2)c2ccccc2c1O (stereo not shown) [I-1] | no significant change | significantly elevated | significantly elevated | significantly decreased | increased significantly | increased significantly | more effective | better | reduce | reduced the serum TNFα level, and the difference was significant | alleviated the damage to renal tissues | inhibited | inhibited | significantly reduced | significantly reduced | 
O=C(O)C[S+]([O-])c1cc(NS(=O)(=O)c2ccc(C(F)(F)F)cc2)c2ccccc2c1O (stereo not shown) [I-14-1] | no significant change | significantly elevated | significantly elevated | significantly decreased | increased significantly | increased significantly |  |  |  |  |  |  |  |  |  | 
O=C(O)CSc1cc(NS(=O)(=O)c2ccc(Br)cc2)c2ccccc2c1O [UMI-77, reference compound] |  |  |  |  |  |  |  |  |  |  |  |  |  |  |  | less effective
